From patent US9856259B2, “Heterocyclic compounds and uses thereof” (Plexxikon Inc., priority 2014, dated 2018)

Assays:
BRD4-BD12 = biological target: T1, BRD4-BD12 (Homo sapiens, UniProt O60885); test: Alphascreen binding assay, BRD4(1 2) H4; details: BRD4 dual bromodomains with acetylated Histone 4 peptide, read-out: Biochemical activity (IC50 μM) BRD4(1 2) H4
T1 construct: dual bromodomains (BRD4-BD12 (1-477), BRD4-BD12 (1-472)); six-His tag (N); made in house; host or cells: E. coli BL21-CodonPlus (DE3)
Protocol: Binding of compounds of formula (I) with bromodomain 2, 3 4 was assessed using Alphascreen binding assay. The inhibition of the interaction between bromodomain and its acetylated target protein (Filippakopoulos P et al. 2012) was measured quantitatively using recombinant BRD proteins, an acetylated Histone 4 peptide and AlphaScreen™ technology. In absence of inhibition the BRD protein bound to AlphaScreen™ nickel chelate acceptor beads can interact with the acetylated Histone 4 peptide which is immobilized by the AlphaScreen™ Streptavidin coated beads. This interaction brings donor and acceptor beads in proximity. The close proximity allows the singlet oxygen produced by laser excitation of the donor beads to reach the acceptor beads and generate a luminescence signal. BRD inhibitors result in a decrease in the proximity signal through an inhibition of the BRD acetylated peptide interaction.
Recombinant human bromodomains containing the N-terminal bromodomain (BRD2-BD1 (71-194), BRD3-BD1 (24-144) and BRD4-BD1 (44-164)) or dual bromodomains (BRD4-BD12 (1-477), BRD4-BD12 (1-472)) were prepared and purified as described in protein expression and purification session. The peptide is human Histone H41-21K5AcK8AcK12AcK16Ac-Biotin (Anaspec Calif., USA).
Protocol for BRD2, BRD3 and BRD4 assay: All components are prepared in buffer composed of 50 mM HEPES pH 7.5, 100 mM NaCl, 0.01% BSA, 0.01% Triton X-100, 2 mM DTT. 7 μL of Bromodomain protein and 7 μL of peptide are added to wells containing 1 μL of various concentrations of test compounds of formula (I) or DMSO vehicle in an Alphaplate (PerkinElmer Ga., USA) and incubated for 1 hour at room temperature. 4 μL donor and acceptor bead mixture is then added with final concentrations of 7.5 μg/ml. 30 minutes after bead addition, Alpha signal is read on the Envision spectrometer (λEx 680 nm, λEm 520-620 nm). Final concentrations of bromodomain proteins and peptide are as shown below.
All data was normalized to the mean of 16 high and 16 low control wells on each plate. A four parameter curve fit of the following formula was then applied: Y=a+(b−a)/(1+(x/c)^d) Where ‘a’ is the minimum, ‘b’ is the maximum, ‘c’ is the pIC50 and ‘d’ is the Hill slope. Protein Expression and Purification
Recombinant human bromodomains containing the N-terminal bromodomain (BRD2-BD1 (71-194), BRD3-BD1 (24-144) and BRD4-BD1 (44-164)) or dual bromodomains (BRD4-BD12 (1-477), BRD4-BD12 (1-472)) were expressed in E. coli cells (in a modified pET vector) with an N-terminal six-His tag and purified using a combination of both IMAC (Ni-affinity) and size exclusion chromatography steps.
Recombinant BRD proteins were expressed using the E. coli strain BL21-CodonPlus (DE3) (Agilent Technologies CA, USA). Cells were grown in Terrific Broth (TB) media to an OD600 of 1.2 at 37° C. at which temperature was reduced to 25° C., protein was induced with 1.0 mM IPTG for 12-18 hours and harvested by centrifugation at 8000×g for 20 minutes. Cells were re-suspended in 0.1M KPO4 pH 8.0, 250 mM NaCl, 10% Glycerol, 0.75% NP-40, 25 mM Imidazole, 5 mM BME with 0.2 mg/ml Lysosyme, 2.0 mM PMSF, 25 μg/ml DNAse I, incubated on ice for 30 minutes and lyzed with a cell disruptor (MicroFluidics MA, USA). The lysate was clarified by centrifugation at 20,000×g for 2 hours. The protein was captured with Ni-NTA resin (Life Technologies, USA). Contaminating proteins were washed off with 25 mM Tris-HCl pH 8.3, 250 mM NaCl, 12% Glycerol and 50 mM Imidazole. Following 3× wash steps, protein was eluted step wise using a 50 mM HEPES pH 7.5, 500 mM NaCl and 400 mM Imidazole. The protein was further purified using Gel Filtration column 26/600 Superdex 200 (GE Biosciences N.J., USA) in 50 mM HEPES pH 7.5, 250 mM NaCl. The protein was aliquoted and flash-frozen in liquid Nitrogen.

MV-4-11 = test: Oncology cell growth assay, MV-4-11 3 d growth; type: cell-based; details: Homo sapiens, MV4-11; MV-4-11 cells, 72 hours, CellTiter Glo; read-out: Cell activity (IC50 μM) MV-4-11 3 d-Growtb
Protocol: (§1) In this study, we test compounds in different cancer cell lines. MV-4-11 and MOLM-13 are AML cell lines harboring a MLL-AF4 and MLL-AF9 translocation, respectively. MM.1S is a multiple myeloma cell line. SK—N-AS, IMR-32 and SK-N-BE(2) are neuroblastoma cell lines. IMR-32 and SK-N-BE(2) cell lines harbor MYCN amplifications.
(§2) MV-4-11, MM.1S, IMR-32, SK-N-AS and SK-N-BE(2) were obtained from ATCC (IL, USA) and MOLM-13 were purchased from DSMZ (Braunschweig, German). Cells are cultured as recommended by their sources. For growth inhibition studies 3000 cells are seeded in wells of a 96-well plate in 75 μL of culture media. After several hours, growth media containing compounds of formula (I) are added to the wells. Compound at a maximal concentration of 5 mM was serially diluted 1:3 for a total of 8 point titration with DMSO as a control. A 1 μL aliquot of each dilution point is added to 249 μL growth media and 75 μL is added to each well containing cells, providing 10 μM compound at the maximum concentration point. The final concentration of DMSO in all wells is 0.2%. Cells are incubated for 72 hours, and 25 μL of CellTiter Glo Reagent (Promega Ga., USA) is added to each well. Plates are shaken for approximately 10 minutes and chemiluminescent signal is read on Tecan microplate reader. The measured luminescence correlates directly with cell number.
(§3) All data is normalized to the mean of eight DMSO high control wells on each plate. A four parameter curve fit of the following formula was then applied: Y=a+(b−a)/(1+(x/c)^d) Where ‘a’ is the minimum, ‘b’ is the maximum, ‘c’ is the pIC50 and ‘d’ is the Hill slope. […] Myc Reporter Assay

[1] = system: cancer cell lines / MV-4-11 Myc reporter cell line; test: Bromodomain cell assays of Example 8 (at least one of them); type: cell-based; details: Homo sapiens, MV4-11; at least one of the bromodomain cell assays described in Example 8
Protocol: as §1, §2, §3
In MV-4-11 cells, BRD2, BRD3 and BRD4 bind to the promoter region of MYC and regulate its transcription (Dawson M A et al. 2011). The literature bromodomain inhibitor iBET 151 could disrupt BRD4 recruitment to the MYC promoter and subsequently downregulate c-myc transcription (Dawson M A et al. 2011). Myc protein is a transcription factor that heterodimerizes with an obligatory partner Max and regulates the transcription of genes important for cell proliferation, differentiation, and apoptosis. This Myc reporter assay is used to monitor the inhibitory effect of compound of formula (I) on Myc dependent gene expression. Effective compounds could have potential therapeutic effects in Myc-driven tumors.
The MV-4-11 Myc reporter cell line is established by infecting MV-4-11 with VSV-g pseudotyped lentivirus expressing the firefly luciferase gene under the control of a minimal (m) CMV promoter and tandem repeats of the E-box transcriptional response element (TRE) (Qiagen IL, USA) and selecting cells in 2.5 μg/ml Puromycin.
The MV-4-11 Myc reporter cell line is maintained in Iscove's Modified Dulbecco's Medium containing 10% FBS, 1% PenStep and 2.5 μg/ml Puromycin. Cells are incubated at 37° C. in a humidified atmosphere with 5% CO2. 25,000 cells are seeded in 96-well plate in 50 μL of culture media. After several hours, growth media containing 2× compounds are added to the wells. Compound at a maximal concentration of 5 mM is serially diluted 1:3 for a total of 8 point titration. A 1 μl aliquot of each dilution point is added to 249 μl growth media and 50 μl is added to each well containing cells, providing 10 μM compound at the maximum concentration point. DMSO treated cells serve as a high control and 10 μM JQ1 treated cells serve as a low control. Cells are incubated for a further 24 hours and 25 μL of CellTiter-Fluo Reagent (Promega Ga., USA) is added to each well. Plates are shaken for approximately 2 minutes and incubated at 37° C. for 0.5 hour. Fluorescence signal is read in a Tecan Plate reader (λex=400 nm, λcm=505 nm). 25 μL of One-Glo Reagent (Promega Ga., USA) is then added to the plates. Chemiluminescent signal is read on Tecan plate reader. Values from the wells with no cells are subtracted from all samples for background correction. […]

| Compound | IC50 (BRD4-BD12) | IC50 (MV-4-11) | IC50 [1] |
| --- | --- | --- | --- |
| [2H]C([2H])(C1CCC(F)(F)CC1)n1ccc2ncc(-c3c(C)noc3C)nc21 [Compound P-2038, 4-[5-[dideuterio-(4,4-difluorocyclohexyl)methyl]pyrrolo[2,3-b]pyrazin-3-yl]-3,5-dimethyl-isoxazole] | ≤ 1 µM | 1 to 10 µM | < 10 µM |
| COC(=O)c1ccc(-c2cn([C@@H](C)c3ccccn3)c3nc(-c4c(C)noc4C)cnc23)cc1 [Compound P-2049, methyl 4-[3-(3,5-dimethylisoxazol-4-yl)-5-[(1S)-1-(2-pyridyl)ethyl]pyrrolo[2,3-b]pyrazin-7-yl]benzoate] | ≤ 1 µM | ≤ 1 µM | < 10 µM |
| Cc1noc(C)c1-c1ccc2c(-c3cnn(CC(F)(F)F)c3)nn(CC3CCC(F)(F)CC3)c2c1 [Compound P-2002, 4-[1-[(4,4-difluorocyclohexyl)methyl]-3-[1-(2,2,2-trifluoroethyl)pyrazol-4-yl]indazol-6-yl]-3,5-dimethyl-isoxazole] | ≤ 1 µM | ≤ 1 µM | < 10 µM |
| Cc1noc(C)c1-c1ccc2c(-c3ccc(C(=O)O)cc3)nn([C@@H](C)c3ccccn3)c2c1 [Compound P-2013, 4-[6-(3,5-dimethylisoxazol-4-yl)-1-[(1S)-1-(2-pyridyl)ethyl]indazol-3-yl]benzoic acid] | ≤ 1 µM | ≤ 1 µM | < 10 µM |
| Cc1noc(C)c1-c1cnc2c(-c3ccc(C#N)nc3)cn([C@@H](C)c3ccccn3)c2n1 [Compound P-2055, 5-[3-(3,5-dimethylisoxazol-4-yl)-5-[(1S)-1-(2-pyridyl)ethyl]pyrrolo[2,3-b]pyrazin-7-yl]pyridine-2-carbonitrile] | ≤ 1 µM | ≤ 1 µM | < 10 µM |
| Cc1noc(C)c1-c1cnc2c(I)nn(CC3CCC(F)(F)CC3)c2c1 [Compound P-2080, 4-[1-[(4,4-difluorocyclohexyl)methyl]-3-iodo-pyrazolo[4,3-b]pyridin-6-yl]-3,5-dimethyl-isoxazole] | ≤ 1 µM | ≤ 1 µM | < 10 µM |
| [2H]C([2H])(C1CCC(F)(F)CC1)n1nc(-c2cnn(CC(F)(F)F)c2)c2ncc(-c3c(C)noc3C)cc21 [Compound P-2085, 4-[1-[dideuterio-(4,4-difluorocyclohexyl)methyl]-3-[1-(2,2,2-trifluoroethyl)pyrazol-4-yl]pyrazolo[4,3-b]pyridin-6-yl]-3,5-dimethyl-isoxazole] | ≤ 1 µM | ≤ 1 µM | < 10 µM |
| Cc1noc(C)c1-c1ccc2c(-c3ccc(CC(=O)O)cc3)nn(C(c3ccccc3)c3ccccn3)c2c1 (stereo not drawn) [Compound P-2009, 2-[4-[6-(3,5-dimethylisoxazol-4-yl)-1-[phenyl(2-pyridyl)methyl]indazol-3-yl]phenyl]acetic acid] | ≤ 1 µM | ≤ 1 µM | < 10 µM |
| Cc1noc(C)c1-c1ccc2c(-c3ccc(C(=O)O)cc3)nn(C(c3ccccc3)c3ccccn3)c2c1 (stereo not drawn) [Compound P-2007, 4-[6-(3,5-dimethylisoxazol-4-yl)-1-[phenyl(2-pyridyl)methyl]indazol-3-yl]benzoic acid] | ≤ 1 µM | ≤ 1 µM | < 10 µM |
| COC(=O)c1ccc(-c2nn([C@@H](C)c3ccccn3)c3cc(-c4c(C)noc4C)ccc23)cc1 [Compound P-2011, methyl 4-[6-(3,5-dimethylisoxazol-4-yl)-1-[(1S)-1-(2-pyridyl)ethyl]indazol-3-yl]benzoate] | ≤ 1 µM | ≤ 1 µM | < 10 µM |
| COC(=O)Cc1ccc(-c2nn(C(c3ccccc3)c3ccccn3)c3cc(-c4c(C)noc4C)ccc23)cc1 (stereo not drawn) [Compound P-2008, methyl 2-[4-[6-(3,5-dimethylisoxazol-4-yl)-1-[phenyl(2-pyridyl)methyl]indazol-3-yl]phenyl]acetate] | ≤ 1 µM | ≤ 1 µM | < 10 µM |
| Cc1noc(C)c1-c1ccc2c(I)nn([C@@H](C)c3ccccn3)c2c1 [Compound P-2010, 4-[3-iodo-1-[(1S)-1-(2-pyridyl)ethyl]indazol-6-yl]-3,5-dimethyl-isoxazole] | ≤ 1 µM | ≤ 1 µM | < 10 µM |
